The test system of data set [1] is glucuronidase. The experiment in a line: Half-life in the presence of Escherichia coli -glucuronidase. The class given is ADME. To be noted: Escherichia coli glucuronidase enzyme.
Data set [2] can be described thus: Half-life when incubated at 37 C in 0.05 M phosphate buffer, pH 7.4, the concentration of 12 uM,. The data set is classed as ADME.

Data on 1 molecule can be found in ChEMBL document CHEMBL1130255, “Intensely cytotoxic anthracycline prodrugs: glucuronides” (J Med Chem, 1997).

What is called half-life is how long it takes for the measured level to halve.

`CCOC(CCCN)O[C@@H]1O[C@H](C(=O)[O-])[C@@H](O)[C@H](O)[C@H]1O.[Na+]` (some centres not stated): in data set [1], the half-life is 1.7 h. Besides, the half-life at 12 µM in data set [2] was 30 h.
